Bridge positions count the residues as written; N and C are the ends. Square brackets hold non-standard residues; d marks the D form. Peptide text beside a SMILES is read from it. * marks the point of attachment. ξ: configuration not given here. Bip = N[C@@H](Cc1ccc(-c2ccccc2)cc1)C(=O)O; Phe(3-Me) = Cc1cccc(C[C@H](N)C(=O)O)c1; Cha = N[C@@H](CC1CCCCC1)C(=O)O; dCha = N[C@H](CC1CCCCC1)C(=O)O; dNle = CCCC[C@@H](N)C(=O)O; Carboxymethyl = O=C(O)C*; Orn = NCCC[C@H](N)C(=O)O; Aun = NCCCCCCCCCCC(=O)O; Dab = NCC[C@H](N)C(=O)O; Dap = NC[C@H](N)C(=O)O; AEEA = NCCOCCOCC(=O)O; ξC = NC(CS)C(=O)O

In this assay the target is T1, PD-1/PD-L1 interaction (PE-labeled human PD-L1-Ig binding to Jurkat cell line over-expressing human PD-1) (Homo sapiens, UniProt Q15116).
T1 construct: expressed in transfected cells; host or cells: Jurkat
T1 sequence (Q15116 25-288): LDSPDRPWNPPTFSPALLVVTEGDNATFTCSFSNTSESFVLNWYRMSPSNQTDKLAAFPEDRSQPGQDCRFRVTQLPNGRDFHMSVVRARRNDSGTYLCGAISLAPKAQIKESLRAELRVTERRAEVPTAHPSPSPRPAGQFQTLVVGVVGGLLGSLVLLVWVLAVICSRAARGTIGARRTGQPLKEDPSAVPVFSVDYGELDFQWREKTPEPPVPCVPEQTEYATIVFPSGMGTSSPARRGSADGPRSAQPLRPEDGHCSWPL
As to the kind of experiment: Jurkat-PD-1 Cell Binding High-Content Screening Assay (CBA). The assay is classed as cell-based. The following applies: Jurkat cell line over-expressing human PD-1; PE-labeled PD-L1-Ig 20 nM final; read-out: Jurkat hPD1-PDL1 IC50. In outline: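 First, compound is added to PD-1-expressing Jurkat cells in serum-containing DMEM and left 2 h at 37° C. Next, PE-conjugated PD-L1-Ig is introduced at 20 nM final concentration for 1 hour. Finally, cells are fixed in 4% paraformaldehyde with Hoechst 33342, washed and imaged.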
On to `Cc1cccc(C[C@@H]2NC(=O)[C@H](CC(=O)O)NC(=O)[C@H](Cc3ccc(OCC(=O)O)cc3)NC(=O)[C@H](CN)NC(=O)CSC[C@@H](C(=O)NCCOCCOCC(=O)N[C@@H](CCN)C(=O)NCCCCCCCCCCC(=O)O)NC(=O)[C@H](CCCN)NC(=O)[C@H](C(C)C)NC(=O)[C@H](CC3CCCCC3)NC(=O)[C@H](CCN)NC(=O)[C@@H](CC(C)C)NC(=O)[C@H](CCCN)NC(=O)[C@H](CCC(=O)O)NC(=O)[C@H](Cc3ccc(-c4ccccc4)cc3)NC(=O)[C@H](C(C)C)NC2=O)c1` [Compound 2659] ({CH2CO}-[Dap]Y(Carboxymethyl)D[Phe(3-Me)]V[Bip]E[Orn][dL][Dab][Cha]V[Orn]C[AEEA][Dab][Aun]-OH; thioether N-14), for which the IC50 (usually the midpoint of a concentration-inhibition curve) is 0.0115 µM. As to `CC(C)C[C@H]1NC(=O)[C@H](CCCN)NC(=O)[C@H](CCC(=O)O)NC(=O)[C@H](Cc2ccc(-c3ccccc3)cc2)NC(=O)[C@H](C(C)C)NC(=O)[C@H](Cc2c[nH]c3ccccc23)NC(=O)[C@H](CC(=O)O)NC(=O)[C@H](Cc2ccc(OCC(=O)O)cc2)NC(=O)[C@H](CN)NC(=O)CSC[C@@H](C(=O)N[C@@H](CCN)C(=O)NCCOCCOCC(=O)NCCCCCCCCCCC(=O)O)NC(=O)[C@H](CCCCN)NC(=O)[C@H](C(C)C)NC(=O)[C@H](CC2CCCCC2)NC(=O)[C@H](CCN)NC1=O` [Compound 2660] ({CH2CO}-[Dap]Y(Carboxymethyl)DWV[Bip]E[Orn][dL][Dab][Cha]VKC[Dab][AEEA][Aun]-OH; thioether N-14), the IC50 was found to be 0.0114 µM. To `Cc1cccc(C[C@@H]2NC(=O)[C@H](CC(=O)O)NC(=O)[C@H](Cc3ccc(OCC(=O)O)cc3)NC(=O)[C@H](CN)NC(=O)CSC[C@@H](C(=O)N[C@@H](CCN)C(=O)NCCOCCOCC(=O)NCCCCCCCCCCC(=O)O)NC(=O)[C@H](CN)NC(=O)[C@H](C(C)C)NC(=O)[C@H](CC3CCCCC3)NC(=O)[C@H](CCN)NC(=O)[C@@H](CC(C)C)NC(=O)[C@H](CCCN)NC(=O)[C@H](CCC(=O)O)NC(=O)[C@H](Cc3ccc(-c4ccccc4)cc3)NC(=O)[C@H](C(C)C)NC2=O)c1` [Compound 2661] ({CH2CO}-[Dap]Y(Carboxymethyl)D[Phe(3-Me)]V[Bip]E[Orn][dL][Dab][Cha]V[Dap]C[Dab][AEEA][Aun]-OH; thioether N-14) belongs 0.0109 µM.

Take `Cc1cccc(C[C@@H]2NC(=O)[C@H](CC(=O)O)NC(=O)[C@H](Cc3ccc(OCC(=O)O)cc3)NC(=O)[C@H](CN)NC(=O)CSC[C@@H](C(=O)N[C@@H](CCN)C(=O)NCCOCCOCC(=O)NCCCCCCCCCCC(=O)O)NC(=O)[C@H](CCCNC(=N)N)NC(=O)[C@H](C(C)C)NC(=O)[C@H](CC3CCCCC3)NC(=O)[C@H](CCN)NC(=O)[C@@H](CC(C)C)NC(=O)[C@H](CCCN)NC(=O)[C@H](CCC(=O)O)NC(=O)[C@H](Cc3ccc(-c4ccccc4)cc3)NC(=O)[C@H](C(C)C)NC2=O)c1` [Compound 2662] ({CH2CO}-[Dap]Y(Carboxymethyl)D[Phe(3-Me)]V[Bip]E[Orn][dL][Dab][Cha]VRC[Dab][AEEA][Aun]-OH; thioether N-14): the IC50 amounted to 0.011 µM. On to `CC(C)C[C@H]1NC(=O)[C@H](CCCN)NC(=O)[C@H](CCC(=O)O)NC(=O)[C@H](Cc2ccc(-c3ccccc3)cc2)NC(=O)[C@H](C(C)C)NC(=O)[C@H](Cc2c[nH]c3ccccc23)NC(=O)[C@H](CC(=O)O)NC(=O)[C@H](Cc2ccc(OCC(=O)O)cc2)NC(=O)[C@H](CN)NC(=O)CSCC(C(=O)NCCOCCOCC(=O)NCCCCCCCCCCC(=O)O)NC(=O)[C@H](CCCCN)NC(=O)[C@H](C(C)C)NC(=O)[C@H](CC2CCCCC2)NC(=O)[C@H](CCN)NC1=O` (stereo partly drawn) [Compound 2665] ({CH2CO}-[Dap]Y(Carboxymethyl)DWV[Bip]E[Orn][dL][Dab][Cha]VK[ξC][AEEA][Aun]-OH; thioether N-14), for which the IC50 turned out to be 0.0222 µM. The same measure for `Cc1cccc(C[C@@H]2NC(=O)[C@H](CC(=O)O)NC(=O)[C@H](Cc3ccc(OCC(=O)O)cc3)NC(=O)[C@H](CN)NC(=O)CSC[C@@H](C(=O)NCCOCCOCC(=O)NCCCCCCCCCCC(=O)O)NC(=O)[C@H](CN)NC(=O)[C@H](C(C)C)NC(=O)[C@H](CC3CCCCC3)NC(=O)[C@H](CCN)NC(=O)[C@@H](CC(C)C)NC(=O)[C@H](CCCN)NC(=O)[C@H](CCC(=O)O)NC(=O)[C@H](Cc3ccc(-c4ccccc4)cc3)NC(=O)[C@H](C(C)C)NC2=O)c1` [Compound 2666] ({CH2CO}-[Dap]Y(Carboxymethyl)D[Phe(3-Me)]V[Bip]E[Orn][dL][Dab][Cha]V[Dap]C[AEEA][Aun]-OH; thioether N-14): 0.018 µM; for `Cc1cccc(C[C@@H]2NC(=O)[C@H](CC(=O)O)NC(=O)[C@H](Cc3ccc(OCC(=O)O)cc3)NC(=O)[C@H](CN)NC(=O)CSC[C@@H](C(=O)NCCOCCOCC(=O)NCCCCCCCCCCC(=O)O)NC(=O)[C@H](CCCN)NC(=O)[C@H](C(C)C)NC(=O)[C@H](CC3CCCCC3)NC(=O)[C@H](CCN)NC(=O)[C@@H](CC(C)C)NC(=O)[C@H](CCCN)NC(=O)[C@H](CCC(=O)O)NC(=O)[C@H](Cc3ccc(-c4ccccc4)cc3)NC(=O)[C@H](C(C)C)NC2=O)c1` [Compound 2667] ({CH2CO}-[Dap]Y(Carboxymethyl)D[Phe(3-Me)]V[Bip]E[Orn][dL][Dab][Cha]V[Orn]C[AEEA][Aun]-OH; thioether N-14): 0.0096 µM; for `Cc1cccc(C[C@@H]2NC(=O)[C@H](CC(=O)O)NC(=O)[C@H](Cc3ccc(OCC(=O)O)cc3)NC(=O)[C@H](CN)NC(=O)CSC[C@@H](C(=O)N[C@@H](CCCCN)C(=O)NCCOCCOCC(=O)NCCCCCCCCCCC(=O)O)NC(=O)[C@H](CN)NC(=O)[C@H](C(C)C)NC(=O)[C@H](CC3CCCCC3)NC(=O)[C@H](CCN)NC(=O)[C@@H](CC(C)C)NC(=O)[C@H](CCCN)NC(=O)[C@H](CCC(=O)O)NC(=O)[C@H](Cc3ccc(-c4ccccc4)cc3)NC(=O)[C@H](C(C)C)NC2=O)c1` [Compound 2668] ({CH2CO}-[Dap]Y(Carboxymethyl)D[Phe(3-Me)]V[Bip]E[Orn][dL][Dab][Cha]V[Dap]CK[AEEA][Aun]-OH; thioether N-14): 0.0108 µM. To `Cc1cccc(C[C@@H]2NC(=O)[C@H](CC(=O)O)NC(=O)[C@H](Cc3ccc(OCC(=O)O)cc3)NC(=O)[C@H](CN)NC(=O)CSC[C@@H](C(=O)N[C@@H](CCCCN)C(=O)NCCOCCOCC(=O)NCCCCCCCCCCC(=O)O)NC(=O)[C@H](CCCN)NC(=O)[C@H](C(C)C)NC(=O)[C@H](CC3CCCCC3)NC(=O)[C@H](CCN)NC(=O)[C@@H](CC(C)C)NC(=O)[C@H](CCCN)NC(=O)[C@H](CCC(=O)O)NC(=O)[C@H](Cc3ccc(-c4ccccc4)cc3)NC(=O)[C@H](C(C)C)NC2=O)c1` [Compound 2669] ({CH2CO}-[Dap]Y(Carboxymethyl)D[Phe(3-Me)]V[Bip]E[Orn][dL][Dab][Cha]V[Orn]CK[AEEA][Aun]-OH; thioether N-14) belongs 0.0115 µM. To `Cc1cccc(C[C@@H]2NC(=O)[C@H](CC(=O)O)NC(=O)[C@H](Cc3ccc(OCC(=O)O)cc3)NC(=O)[C@H](CN)NC(=O)CSC[C@@H](C(=O)N[C@@H](CCCCN)C(=O)NCCOCCOCC(=O)NCCCCCCCCCCC(=O)O)NC(=O)[C@H](CCCNC(=N)N)NC(=O)[C@H](C(C)C)NC(=O)[C@H](CC3CCCCC3)NC(=O)[C@H](CCN)NC(=O)[C@@H](CC(C)C)NC(=O)[C@H](CCCN)NC(=O)[C@H](CCC(=O)O)NC(=O)[C@H](Cc3ccc(-c4ccccc4)cc3)NC(=O)[C@H](C(C)C)NC2=O)c1` [Compound 2670] ({CH2CO}-[Dap]Y(Carboxymethyl)D[Phe(3-Me)]V[Bip]E[Orn][dL][Dab][Cha]VRCK[AEEA][Aun]-OH; thioether N-14) belongs 0.0108 µM; to `CC(C)C[C@H]1NC(=O)[C@H](CCCN)NC(=O)[C@H](CCC(=O)O)NC(=O)[C@H](Cc2ccc(-c3ccccc3)cc2)NC(=O)[C@H](C(C)C)NC(=O)[C@H](Cc2c[nH]c3ccccc23)NC(=O)[C@H](CC(=O)O)NC(=O)[C@H](Cc2ccc(OCC(=O)O)cc2)NC(=O)[C@H](Cc2ccc(OCC(=O)O)cc2)NC(=O)CSC[C@@H](C(=O)NCCOCCOCC(=O)N[C@@H](CCN)C(=O)NCCCCCCCCCCC(=O)O)NC(=O)[C@H](CCCNC(=N)N)NC(=O)[C@H](C(C)C)NC(=O)[C@H](CC2CCCCC2)NC(=O)[C@H](CCN)NC1=O` [Compound 2671] ({CH2CO}-Y(Carboxymethyl)Y(Carboxymethyl)DWV[Bip]E[Orn][dL][Dab][Cha]VRC[AEEA][Dab][Aun]-OH; thioether N-14), 0.0141 µM; to `CCCC[C@H]1NC(=O)[C@H](CCCN)NC(=O)[C@H](C(C)C)NC(=O)[C@H](Cc2ccc(-c3ccccc3)cc2)NC(=O)[C@H](C(C)C)NC(=O)[C@H](Cc2c[nH]c3ccccc23)NC(=O)[C@H](CC(=O)O)NC(=O)[C@H](Cc2ccc(OCC(=O)O)cc2)NC(=O)[C@H](CN)NC(=O)CSC[C@@H](C(=O)NCCOCCOCC(=O)N[C@@H](CCN)C(=O)NCCCCCCCCCCC(=O)O)NC(=O)[C@H](CCCCN)NC(=O)[C@H](C(C)C)NC(=O)[C@H](CC2CCCCC2)NC(=O)[C@H](CCN)NC1=O` [Compound 2672] ({CH2CO}-[Dap]Y(Carboxymethyl)DWV[Bip]V[Orn][dNle][Dab][Cha]VKC[AEEA][Dab][Aun]-OH; thioether N-14), 0.0227 µM. Consider `CC(C)[C@@H]1NC(=O)[C@H](CC2CCCCC2)NC(=O)[C@H](CCN)NC(=O)[C@@H](CC2CCCCC2)NC(=O)[C@H](CCCN)NC(=O)[C@H](C(C)C)NC(=O)[C@H](Cc2ccc(-c3ccccc3)cc2)NC(=O)[C@H](C(C)C)NC(=O)[C@H](Cc2c[nH]c3ccccc23)NC(=O)[C@H](CC(=O)O)NC(=O)[C@H](Cc2ccc(OCC(=O)O)cc2)NC(=O)[C@H](CN)NC(=O)CSC[C@@H](C(=O)NCCOCCOCC(=O)N[C@@H](CCN)C(=O)NCCCCCCCCCCC(=O)O)NC(=O)[C@H](CCCCN)NC1=O` [Compound 2673] ({CH2CO}-[Dap]Y(Carboxymethyl)DWV[Bip]V[Orn][dCha][Dab][Cha]VKC[AEEA][Dab][Aun]-OH; thioether N-14), for which the IC50 stood at 0.0225 µM.

The record behind these values is patent publication US20260022142A1, “MACROCYCLIC IMMUNOMODULATORS” (Bristol-Myers Squibb Company, priority 2022, published 2026).
